ChEMBL document CHEMBL1136396, “Discovery of 3-amino-4-chlorophenyl P1 as a novel and potent benzamidine mimic via solid-phase synthesis of an isoxazoline library” (Bioorg Med Chem Lett, 2003)

Molecular target: T1, Coagulation factor X (Homo sapiens, UniProt P00742)
Test: Binding affinity against the Factor Xa (FXa)

T1 sequence (P00742 41-179 limits assumed): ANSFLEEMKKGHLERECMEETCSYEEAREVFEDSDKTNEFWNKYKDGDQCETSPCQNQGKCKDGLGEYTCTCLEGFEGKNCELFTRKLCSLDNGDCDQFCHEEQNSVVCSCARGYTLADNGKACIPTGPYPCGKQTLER
T1 sequence (P00742 235-488 limits assumed): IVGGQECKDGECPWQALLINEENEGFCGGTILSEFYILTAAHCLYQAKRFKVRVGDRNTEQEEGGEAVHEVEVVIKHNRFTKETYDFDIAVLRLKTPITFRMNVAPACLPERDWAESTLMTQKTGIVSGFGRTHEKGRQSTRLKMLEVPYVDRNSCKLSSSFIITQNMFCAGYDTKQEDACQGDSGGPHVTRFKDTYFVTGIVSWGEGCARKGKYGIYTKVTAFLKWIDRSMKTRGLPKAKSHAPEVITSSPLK

SMILES	Ki [µM]
NS(=O)(=O)c1ccccc1-c1ccc(NC(=O)C2CC(c3ccc(C(F)F)cc3)=NO2)cc1 (configuration not stated)	1.6
NS(=O)(=O)c1ccccc1-c1ccc(NC(=O)C2CC(c3cccc(Br)c3)=NO2)cc1 (configuration not stated)	> 30
CO[C@@H]1[C@H]2OC(C)(C)O[C@H]2O[C@H]1C1=NOC(C(=O)Nc2ccc(-c3ccccc3S(N)(=O)=O)cc2)C1 (some centres not stated)	> 30
NS(=O)(=O)c1ccccc1-c1ccc(NC(=O)C2CC(c3cccs3)=NO2)cc1 (configuration not stated)	1.3
NS(=O)(=O)c1ccccc1-c1ccc(NC(=O)C2CC(c3ccc(O)cc3)=NO2)cc1 (configuration not stated)	22
CCCCCCOc1ccccc1C1=NOC(C(=O)Nc2ccc(-c3ccccc3S(N)(=O)=O)cc2)C1 (configuration not stated)	1.8
NS(=O)(=O)c1ccccc1-c1ccc(NC(=O)C2CC(c3cccc4ccccc34)=NO2)cc1 (configuration not stated)	> 30
NS(=O)(=O)c1ccccc1-c1ccc(NC(=O)C2CC(c3ccccc3Cl)=NO2)cc1 (configuration not stated)	1.7
NS(=O)(=O)c1ccccc1-c1ccc(NC(=O)C2CC(c3ccc(Cl)cc3Cl)=NO2)cc1 (configuration not stated)	1.7
NS(=O)(=O)c1ccccc1-c1ccc(NC(=O)C2CC(/C=C/c3ccco3)=NO2)cc1 (configuration not stated)	2.3
NS(=O)(=O)c1ccccc1-c1ccc(NC(=O)C2CC(c3ccc4ccccc4c3)=NO2)cc1 (configuration not stated)	20
COc1ccc(Br)cc1C1=NOC(C(=O)Nc2ccc(-c3ccccc3S(N)(=O)=O)cc2)C1 (configuration not stated)	> 30
NS(=O)(=O)c1ccccc1-c1ccc(NC(=O)C2CC(c3ccc(-c4ccccc4)cc3)=NO2)cc1 (configuration not stated)	1.1
NS(=O)(=O)c1ccccc1-c1ccc(NC(=O)C2CC(c3cccc(C(=O)O)c3)=NO2)cc1 (configuration not stated)	> 30

Now from value to molecule:

Ki [µM]	SMILES
2.4	NS(=O)(=O)c1ccccc1-c1ccc(NC(=O)C2CC(c3ccc4c(c3[N+](=O)[O-])OCO4)=NO2)cc1 (configuration not stated)
> 30	NS(=O)(=O)c1ccccc1-c1ccc(NC(=O)C2CC(CCc3ccccc3)=NO2)cc1 (configuration not stated)
> 30	NS(=O)(=O)c1ccccc1-c1ccc(NC(=O)C2C[C+](c3ccc(Cl)c([N+](=O)[O-])c3)[N-]O2)cc1 (configuration not stated)
0.7	COc1ccc(C2=NOC(C(=O)Nc3ccc(-c4ccccc4S(N)(=O)=O)cc3)C2)cc1 (configuration not stated)
> 3	NS(=O)(=O)c1ccccc1-c1ccc(NC(=O)C2CC(c3cccc(O)c3)=NO2)cc1 (configuration not stated)
2.5	NS(=O)(=O)c1ccccc1-c1ccc(NC(=O)C2CC(c3ccc(Cl)c(F)c3)=NO2)cc1 (configuration not stated)
> 30	NS(=O)(=O)c1ccccc1-c1ccc(NC(=O)C2CC(c3cc(I)c(O)c(I)c3)=NO2)cc1 (configuration not stated)
> 3	COc1ccc2ccccc2c1C1=NOC(C(=O)Nc2ccc(-c3ccccc3S(N)(=O)=O)cc2)C1 (configuration not stated)
2.1	Cc1ccc(C2=NOC(C(=O)Nc3ccc(-c4ccccc4S(N)(=O)=O)cc3)C2)cc1 (configuration not stated)
2.3	NS(=O)(=O)c1ccccc1-c1ccc(NC(=O)C2CC(/C=C/c3ccccc3)=NO2)cc1 (configuration not stated)
0.49	NS(=O)(=O)c1ccccc1-c1ccc(NC(=O)C2CC(c3ccc4c(c3)OCO4)=NO2)cc1 (configuration not stated)
1.7	NS(=O)(=O)c1ccccc1-c1ccc(NC(=O)C2CC(c3ccc4c(c3Cl)OCO4)=NO2)cc1 (configuration not stated)
> 30	NS(=O)(=O)c1ccccc1-c1ccc(NC(=O)C2CC(c3c(O)ccc4ccccc34)=NO2)cc1 (configuration not stated)
17	NS(=O)(=O)c1ccccc1-c1ccc(NC(=O)C2CC(c3cccc(C(F)(F)F)c3)=NO2)cc1 (configuration not stated)
11	NS(=O)(=O)c1ccccc1-c1ccc(NC(=O)C2CC(c3ccccc3)=NO2)cc1 (configuration not stated)
2.7	NS(=O)(=O)c1ccccc1-c1ccc(NC(=O)C2CC(c3ccc(Cl)c(Cl)c3)=NO2)cc1 (configuration not stated)
10	NS(=O)(=O)c1ccccc1-c1ccc(NC(=O)C2CC(c3cccc(I)c3)=NO2)cc1 (configuration not stated)
17	CCCCCCCCCCC1=NOC(C(=O)Nc2ccc(-c3ccccc3S(N)(=O)=O)cc2)C1 (configuration not stated)
20	COc1cc(C2=NOC(C(=O)Nc3ccc(-c4ccccc4S(N)(=O)=O)cc3)C2)ccc1O (configuration not stated)

Molecular target: T1, Coagulation factor X
Test: Binding affinity against the coagulation factor X

SMILES	Ki [µM]
COc1cccc(C2=NOC(C(=O)Nc3ccc(-c4ccccc4S(N)(=O)=O)cc3)C2)c1 (configuration not stated)	7.5
NS(=O)(=O)c1ccccc1-c1ccc(NC(=O)C2CC(c3ccc(Br)cc3)=NO2)cc1 (configuration not stated)	4.1
NS(=O)(=O)c1ccccc1-c1ccc(NC(=O)C2CC(c3ccc(F)c(F)c3)=NO2)cc1 (configuration not stated)	4.6
NS(=O)(=O)c1ccccc1-c1ccc(NC(=O)C2CC(c3ccc(I)cc3)=NO2)cc1 (configuration not stated)	1.9
NS(=O)(=O)c1ccccc1-c1ccc(NC(=O)C2CC(c3cccc(Cl)c3)=NO2)cc1 (configuration not stated)	5.9

Second part, the molecule after the results:

Ki [µM]	SMILES
1	NS(=O)(=O)c1ccccc1-c1ccc(NC(=O)C2CC(c3ccc(Cl)cc3)=NO2)cc1 (configuration not stated)
7.8	NS(=O)(=O)c1ccccc1-c1ccc(NC(=O)C2CC(c3cccc(F)c3)=NO2)cc1 (configuration not stated)
4.5	CCCCCC1=NOC(C(=O)Nc2ccc(-c3ccccc3S(N)(=O)=O)cc2)C1 (configuration not stated)

Molecular target: T1, Coagulation factor X
Test: Binding affinity against Coagulation factor X

Ki [µM]	SMILES
0.13	Nc1cc(C2=NOC(C(=O)Nc3ccc(-c4ccccc4S(N)(=O)=O)cc3)C2)ccc1Cl (configuration not stated)
